Data: patent US20230174584A1, “Antibiotic Compounds” (priority 2019, published 2023)
≈ marks a conversion by molar mass, not a printed value. Where two headings read alike, the source gives them in different places.

Experiments:
[1] = tested on: S. aureus HIP13419, NR-46413; assay: microbe, parasite or virus in culture; type: cell-based, Staphylococcus aureus
Description: (§1) The antibacterial activity of the compounds was tested against a panel of bacteria, including Gram-positive bacteria (S. aureus ATCC29213, S. aureus USA300, S. aureus LIM-2, NR-45881, S. aureus HIP13419, NR-46413, E. faecium E155, E. faecium E7314, E. faecium E980, E. faecalis E1246, E. faecalis E7406 and S. pneumonia 153). The antibacterial activity of the compounds was further tested against S. aureus NY-155, NR-46236, S. aureus HIP12864, NR-46074, S. aureus 880 (BR-VRSA), NR-49120, E. faecalis E1246, E. faecalis E7604, as well as some Gram-negative bacteria (Escherichia coli and Klebsiella pneumoniae). Minimum inhibitory concentrations (MICs) in μg/mL were performed according to the CLSI guidelines. From glycerol stocks, bacterial strains were cultured on blood agar plates and incubated at 37° C. for 18 h. A single colony was transferred to tryptic soy broth (TSB) with 0.002% polysorbate 80 (p80). For the Enterococcus, VISA and VRSA strains, the cultures were grown at 37° C. until the optical density of the suspension reached a level equivalent to the 0.5 McFarland standard. The bacterial suspensions were diluted in TSB with 0.002% p80 to reach a bacterial cell density of 10^6 CFU/mL. In case of the other (vancomycin-sensitive) S. aureus strains, the direct colony suspension method was used. For these strains, after transfer of the colonies to TSB with 0.002% p80, they were immediately diluted to 10^6 CFU/mL, instead of incubated prior to this dilution. In the case of S. pneumonia, direct colony suspension was used by immediately suspending multiple colonies from fresh blood agar plates in TSB+0.002% p80 to an OD600 of 0.5 and subsequent dilution to 10^6 CFU mL^−1 in TSB+0.002% p80+5% lysed horse blood. Antibiotic dilutions for this strains were also made in TSB+0.002% p80+5% lysed horse blood. Both agar and microplates containing S. pneumonia were incubated at 37° C. with 5% CO2 for 24 h with constant shaking (600 rpm). […] The cultures were grown to exponential phase (OD600=0.5) at 37° C. […] In polypropylene 96-well microtiter plates, test compounds were added in biological triplicates and serial diluted 2-fold by transfer and mixing from one well to the next to achieve a final volume of 50 μL per well. An equal volume of bacterial suspension (10^6 CFU mL^−1) was added to the wells. The plates were sealed with breathable membranes and incubated at 37° C. for 24 h with constant shaking (600 rpm). In polypropylene microtiter plates, 100 μL of the test compounds was added to the first row in biological triplicates, and 50 μL of media was added to the other wells. The compounds were subjected to serial dilution by transfer and mixing of 50 μL from one well to the next. Subsequently, 50 μL of bacterial suspension (10^6 CFU/mL) was added to the wells. The plates were sealed with breathable membranes and incubated at 37° C. for 24 h with constant shaking (600 rpm). Positive growth control consisted of wells with bacterial suspension and without antibiotic. Negative growth control consisted of solely media without bacterial suspension or antibiotic. The MICs were determined from the median of a minimum of triplicates.

S. aureus USA300 = assay: microbe, parasite or virus in culture; type: cell-based, Staphylococcus aureus
Description: as §1

E. faecium E7314 = assay: microbe, parasite or virus in culture; type: cell-based, Enterococcus faecium
Description: as §1

E. faecium E155 = assay: microbe, parasite or virus in culture; type: cell-based, Enterococcus faecium
Description: as §1

E. faecalis E7406 = assay: microbe, parasite or virus in culture; type: cell-based, Enterococcus faecalis
Description: as §1

E. faecalis E7604 = assay: microbe, parasite or virus in culture; type: cell-based, Enterococcus faecalis
Description: as §1

MRSA USA300 = assay: MIC assay in the presence of sheep serum; type: cell-based, Staphylococcus aureus; details: MRSA USA300, TSB + 0.002% p80 + 50% sheep serum
Description: as §1
The activity of the compounds was further assessed against MRSA USA300 strain in the presence of sheep) serum in another MIC assay. The cultures that grew in the presence of serum used TSB+0.002% P80+50% sheep serum as growth media, as opposed to normal MICs done in only TSB+0.002% P80.

S. pneumoniae 153 = assay: MIC assay; type: cell-based; details: S. pneumoniae 153, TSB+0.002% p80+5% lysed horse blood
Description: as §1

E. faecium E980 = assay: MIC assay; type: cell-based, Enterococcus faecium
Description: as §1

E. faecalis E1246 = assay: MIC assay; type: cell-based, Enterococcus faecalis
Description: as §1

[2] = tested on: S. aureus NY-155, NR-46236; assay: MIC assay; type: cell-based, Staphylococcus aureus; details: S. aureus NY-155, NR-46236 MRSA
Description: as §1

[3] = tested on: S. aureus 880 (BR-VRSA), NR-49120; assay: MIC assay; type: cell-based, Staphylococcus aureus; details: S. aureus 880, NR-49120 VRSA
Description: as §1

[4] = tested on: S. aureus LIM-2, NR-25881; assay: MIC assay; type: cell-based, Staphylococcus aureus; details: S. aureus LIM-2, NR-25881 VISA
Description: as §1

S. aureus ATCC29213 = assay: MIC assay; type: cell-based, Staphylococcus aureus
Description: as §1

[5] = tested on: S. aureus HIP12864, NR-46074; assay: MIC assay; type: cell-based, Staphylococcus aureus; details: S. aureus HIP12864, NR-46074 VISA
Description: as §1

[6] = S. aureus HIP13419, NR-46413 VRSA
[7] = E. faecalis E1246 VRE (VanA), Table 7
[8] = E. faecalis E1246 VRE (vanA), Table 9
[9] = Staphylococcus aureus, read-out: MIC

Molecule | MIC [1, 6] [µg/mL] | MIC (S. aureus USA300; MRSA USA300, TSB + 0.002% p80) [µg/mL] | MIC (S. aureus USA300; S. aureus USA300 MRSA) [µg/mL] | MIC (E. faecium E7314; E. faecium E7314 VRE (VanB)) [µg/mL] | MIC (E. faecium E155; E. faecium E155 VRE (VanA)) [µg/mL] | MIC (E. faecalis E7406; E. faecalis E7406 VRE (VanB)) [µg/mL] | MIC (E. faecalis E7604; E. faecalis E7604 VRE (vanB)) [µg/mL] | MIC (MRSA USA300) [µg/mL] | MIC (S. pneumoniae 153) [µg/mL] | MIC (E. faecium E980; E. faecium E980 VSE) [µg/mL] | MIC (E. faecalis E1246; [7]) [µg/mL] | MIC (E. faecalis E1246; [8]) [µg/mL] | MIC [2] [µg/mL] | MIC [3] [µg/mL] | MIC [4] [µg/mL] | MIC (S. aureus ATCC29213; S. aureus ATCC29213 MSSA) [µg/mL] | MIC [5] [µg/mL] | other results
CCCCCCCCCCCCCCNC(N)=Nc1ccc(CN[C@@]2(C)C[C@H](O[C@H]3[C@H](Oc4c5cc6cc4Oc4ccc(cc4Cl)[C@@H](O)[C@@H](NC(=O)[C@@H](CC(C)C)NC)C(=O)N[C@@H](CC(N)=O)C(=O)N[C@H]6C(=O)N[C@H]4C(=O)N[C@H](C(=O)N[C@H](C(=O)O)c6cc(O)cc(O)c6-c6cc4ccc6O)[C@H](O)c4ccc(c(Cl)c4)O5)O[C@H](CO)[C@@H](O)[C@@H]3O)O[C@@H](C)[C@H]2O)cc1 [Compound 10] | 0.5 (≈ 0.279 µM) | 4 | 4 (≈ 2.23 µM) | 0.5 (≈ 0.279 µM) | 0.5 (≈ 0.279 µM) | 1 (≈ 0.558 µM) | 1 (≈ 0.558 µM) | 16 | 0.031 (≈ 0.0173 µM) | 0.5 (≈ 0.279 µM) | 2 (≈ 1.12 µM) | 2 (≈ 1.12 µM) | 8 (≈ 4.46 µM) | 1 (≈ 0.558 µM) | 4 (≈ 2.23 µM) | 2 (≈ 1.12 µM) | 2 (≈ 1.12 µM) | –
CN[C@H]1C(=O)N[C@@H]2Cc3ccc(cc3)Oc3cc4cc(c3O[C@@H]3O[C@H](C(=O)O)[C@@H](O)[C@H](O)[C@H]3NC(=O)CCCCCCCCC(C)C)Oc3ccc(cc3Cl)[C@@H](O)[C@@H]3NC(=O)[C@H](NC(=O)[C@@H]4NC(=O)[C@@H](NC2=O)c2cc(cc(O)c2Cl)Oc2cc1ccc2O)c1ccc(O)c(c1)-c1c(O[C@H]2O[C@H](CO)[C@@H](O)[C@H](O)[C@@H]2O)cc(O)cc1[C@@H](C(=O)NCCCN(C)C)NC3=O [Dalbavancin, reference compound] | – | – | – | – | – | – | – | – | – | – | – | >128 | – | – | – | – | – | MIC ([1]; Staphylococcus aureus, VRSA): 16 µg/mL (≈ 8.81 µM); MIC (S. aureus USA300; Staphylococcus aureus, MRSA / USA300): 0.25 µg/mL (≈ 0.138 µM); MIC (E. faecium E7314; Enterococcus faecium, VRE): 0.0156 µg/mL (≈ 0.0086 µM); MIC (E. faecium E155; Enterococcus faecium, VRE): 128 µg/mL (≈ 70.5 µM); MIC (E. faecalis E7406; Enterococcus faecalis, VRE): 0.0312 µg/mL (≈ 0.0172 µM); MIC (E. faecalis E7604; Enterococcus faecalis, VRE): 0.031 µg/mL (≈ 0.0171 µM); MIC (MRSA USA300; Staphylococcus aureus, 24 h, read-out: MIC): 2 µg/mL; MIC (S. pneumoniae 153; Streptococcus pneumoniae, read-out: MIC): ≤ 0.008 µg/mL; MIC (E. faecium E980; Enterococcus faecium, E980): 0.0625 µg/mL (≈ 0.0344 µM); MIC (E. faecalis E1246; Enterococcus faecalis, E. faecalis E1246 VRE (VanA), Table 7, read-out: MIC): > 128 µg/mL; MIC [2, 9]: ≤ 0.008 µg/mL; MIC [3, 9]: 2 µg/mL (≈ 1.1 µM); MIC [4, 9]: 1 µg/mL (≈ 0.55 µM); MIC (S. aureus ATCC29213; Staphylococcus aureus, ATCC 29213 / MSSA): 0.25 µg/mL (≈ 0.138 µM); MIC [5, 9]: 0.5 µg/mL (≈ 0.275 µM)
CCCCCCNC(N)=Nc1ccc(CNC2(C)CC(OC3C(Oc4c5cc6cc4Oc4ccc(cc4Cl)C(O)C4NC(=O)C(NC(=O)C6NC(=O)C(CC(N)=O)NC(=O)C(NC(=O)C(CC(C)C)NC)C(O)c6ccc(c(Cl)c6)O5)c5ccc(O)c(c5)-c5c(O)cc(O)cc5C(C(=O)O)NC4=O)OC(CO)C(O)C3O)OC(C)C2O)cc1 (stereo not shown) [Compound 4] | 4 (≈ 2.38 µM) | 0.063 | 0.0625 (≈ 0.0372 µM) | 0.03125 (≈ 0.0186 µM) | 8 (≈ 4.76 µM) | 0.25 (≈ 0.149 µM) | 0.25 (≈ 0.149 µM) | 0.063 | 0.016 (≈ 0.00952 µM) | 0.03125 (≈ 0.0186 µM) | 32 (≈ 19 µM) | 32 (≈ 19 µM) | 0.063 (≈ 0.0375 µM) | 16 (≈ 9.52 µM) | 0.25 (≈ 0.149 µM) | 0.0625 (≈ 0.0372 µM) | 0.5 (≈ 0.298 µM) | –
CCCCCCCCCCN(CCCCCCCCCC)C(N)=Nc1ccc(CN[C@@]2(C)C[C@H](O[C@H]3[C@H](Oc4c5cc6cc4Oc4ccc(cc4Cl)[C@@H](O)[C@@H](NC(=O)[C@@H](CC(C)C)NC)C(=O)N[C@@H](CC(N)=O)C(=O)N[C@H]6C(=O)N[C@H]4C(=O)N[C@H](C(=O)N[C@H](C(=O)O)c6cc(O)cc(O)c6-c6cc4ccc6O)[C@H](O)c4ccc(c(Cl)c4)O5)O[C@H](CO)[C@@H](O)[C@@H]3O)O[C@@H](C)[C@H]2O)cc1 [Compound 13] | 8 (≈ 4.26 µM) | 16 | 16 (≈ 8.52 µM) | 4 (≈ 2.13 µM) | 8 (≈ 4.26 µM) | 4 (≈ 2.13 µM) | 4 (≈ 2.13 µM) | 64 | 2 (≈ 1.07 µM) | 4 (≈ 2.13 µM) | 32 (≈ 17 µM) | 32 (≈ 17 µM) | 16 (≈ 8.52 µM) | 8 (≈ 4.26 µM) | 32 (≈ 17 µM) | 16 (≈ 8.52 µM) | 16 (≈ 8.52 µM) | –
CN[C@H](CC(C)C)C(=O)N[C@H]1C(=O)N[C@@H](CC(N)=O)C(=O)N[C@H]2C(=O)N[C@H]3C(=O)N[C@H](C(=O)N[C@H](C(=O)O)c4cc(O)cc(O)c4-c4cc3ccc4O)[C@H](O)c3ccc(c(Cl)c3)Oc3cc2cc(c3O[C@@H]2O[C@H](CO)[C@@H](O)[C@H](O)[C@H]2O[C@H]2C[C@](C)(NCc3ccc(N=C(N)NC/C=C(\C)CC/C=C(\C)CCC=C(C)C)cc3)[C@H](O)[C@H](C)O2)Oc2ccc(cc2Cl)[C@H]1O [Compound 15] | 0.125 (≈ 0.0694 µM) | 0.063 | 0.0625 (≈ 0.0347 µM) | 0.01562 (≈ 0.00867 µM) | 0.125 (≈ 0.0694 µM) | 0.03125 (≈ 0.0174 µM) | 0.031 (≈ 0.0172 µM) | 1 | ≤0.008 | 0.03125 (≈ 0.0174 µM) | 1 (≈ 0.555 µM) | 1 (≈ 0.555 µM) | 0.125 (≈ 0.0694 µM) | 0.5 (≈ 0.278 µM) | 0.125 (≈ 0.0694 µM) | 0.03125 (≈ 0.0174 µM) | 0.125 (≈ 0.0694 µM) | –
Teicoplanin [reference compound] | 32 | 0.5 | 0.5 | 0.25 | – | 0.125 | 0.125 | 2 | 0.031 | 0.5 | >128 | >128 | 0.5 | 16 | 16 | 0.5 | 4 | –
